Source: patent publication US20240207242A1, “PHARMACEUTICAL COMPOSITION COMPRISING SPHINGOSINE-1-PHOSPHATE RECEPTOR AGONIST WITH CONTROLLED PARTICLE SIZE” (LG CHEM, LTD., priority 2021, published 2024)
Counter-ions that a name gives are not always drawn.

Test: Pharmacokinetic property (plasma concentration), crossover, tablets (FIG. 3)
Type: in vivo
Settings: male beagle dogs, tablets with Samples 5 to 7
Protocol: A crossover design of taking all three tablets (active ingredients having a particle size of Samples 5 to 7) was applied to this experimentation, and the three tablets were administered to male beagle dogs once each with a 14-day wash-out period. Each dose was taken with 50 mL of water while maintaining the fasted state for at least 14 hours. The results are represented in FIG. 3.

For `CC(C)n1nc(Cl)c2cc(COc3ccc4c(c3)CCC(CN3CCC(C(=O)O)CC3)=C4Cl)ccc21` [API, 1-[1-chloro-6-(3-chloro-1-isopropyl-1H-indazol-5-ylmethoxy)-3,4-dihydro-naphthalen-2-ylmethyl]-piperidine-4-carboxylic acid hydrochloride], the “particle size d(0.9) based on Cmax to show bioequivalence in terms of pharmacokinetics” value was no more than 60 μm.
